Patent US9688702B2, “Alpha-amino boronic acid derivatives, selective immunoproteasome inhibitors” (Ares Trading S.A, priority 2011, dated 2017)

Legend:
[1] = target: Beta5 (purified human constitutive proteasome) (Homo sapiens, UniProt P28074); assay: Determination of Beta5 activity (fluorescence intensity assay, Suc-LLVY-AMC); format: biochemical; conditions: purified human constitutive proteasome 1.0 nM, 40 μM Suc-LLVY-AMC, 37° C.
Summary of the method: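 Purified human constitutive proteasome (1.0 nM) was preincubated 30 min at 37 °C with compounds (10 μM to 38 pM) in 50 mM Tris pH 7.4, 0.03% SDS. Suc-LLVY-AMC (40 μM) was then added and fluorescence (ex 350/em 450 nm) read after 90 min at 37 °C.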

[2] = target: LMP7 (purified human immuno proteasome) (Homo sapiens, UniProt P28062); assay: Determination of LMP7 activity (fluorescence intensity assay, Suc-LLVY-AMC); format: biochemical; conditions: for IC50: 40 μM Suc-LLVY-AMC, 37° C.
Summary of the method: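 Purified human immunoproteasome (0.5 nM or 0.25 nM) preincubated 30 min at 37 °C with compounds (10 μM to 38 pM) in 50 mM Tris pH 7.4, 0.03% SDS. Suc-LLVY-AMC added at 40 μM; after 90 min at 37 °C, fluorescence read at ex 350/em 450 nm.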

[3] = purified human immuno proteasome 0.5 nM
[4] = purified human immuno proteasome 0.25 nM (examples 79, 80, 83, 84, 85, 87, 88, 89, 90, 91, 93, 94, 96, 97, 101 and 110)

Structure (SMILES)	IC50 [1] [nM]	Selectivity LMP7 vs Beta5 [2]	IC50 [2, 3] [nM]	IC50 [2, 4] [nM]
COc1ccc(CCC(=O)N[C@@H](Cc2coc3ccccc23)B(O)O)cc1 [Example 79, (R)-(2-(benzofuran-3-yl)-1-(3-(4-methoxyphenyl)propanamido)ethyl) boronic acid]	50 to 500	+++ (+++: Selectivity > 30)	–	< 50
CCc1cccc(C[C@H](NC(=O)CCn2cc(-c3cccc(OC)c3)nn2)B(O)O)c1 [Example 74, (R)-(2-(3-ethylphenyl)-1-(3-(4-(3-methoxyphenyl)-1H-1,2,3-triazol-1-yl)propanamido)ethyl)boronic acid]	50 to 500	+++ (+++: Selectivity > 30)	< 50	–
O=C(CCn1cc(-c2ccccc2)nn1)N[C@@H](Cc1ccc2c(c1)OCO2)B(O)O [Example 107, (R)-(2-(benzo[d][1,3]dioxol-5-yl)-1-(3-(4-phenyl-1H-1,2,3-triazol-1-yl)propanamido)ethyl)boronic acid]	< 50	++ (++: 10 < Selectivity < 30)	< 50	–
O=C(CCn1cc(-c2ccccc2)nn1)N[C@@H](Cc1coc2ccccc12)B(O)O [Example 89, (R)-(2-(benzofuran-3-yl)-1-(3-(4-phenyl-1H-1,2,3-triazol-1-yl)propanamido)ethyl)boronic acid]	< 50	++ (++: 10 < Selectivity < 30)	–	< 50
CCc1cccc(C[C@H](NC(=O)CCn2cc(-c3cccnc3)nn2)B(O)O)c1 [Example 76, (R)-(2-(3-ethylphenyl)-1-(3-(4-(pyridin-3-yl)-1H-1,2,3-triazol-1-yl)propanamido)ethyl)boronic acid]	500 to 5000	+++ (+++: Selectivity > 30)	< 50	–
CCc1cccc(C[C@H](NC(=O)CCc2noc(-c3ccccc3)n2)B(O)O)c1 [Example 36, ((1R)-2-(3-ethylphenyl)-1-{[3-(5-phenyl-1,2,4-oxadiazol-3-yl)propanoyl]amino}ethyl)boronic acid]	500 to 5000	+++ (+++: Selectivity > 30)	< 50	–
COc1ccc(C(=O)CC(Cc2ccccc2)C(=O)N[C@@H](Cc2cccc(C(F)(F)F)c2)B(O)O)cc1 (mixture of isomers) [Example 27, {(1R)-1-{[2-(RS)-benzyl-4-(4-methoxyphenyl)-4-oxobutanoyl]amino}-2-[3-(trifluoromethyl)phenyl]ethyl}boronic acid]	500 to 5000	+++ (+++: Selectivity > 30)	< 50	–
COc1ccc2occ(C[C@H](NC(=O)CCn3c(=O)sc4ccccc43)B(O)O)c2c1 [Example 109, (R)-(2-(5-methoxybenzofuran-3-yl)-1-(3-(2-oxobenzo[d]thiazol-3(2H)-yl)propanamido)ethyl)boronic acid]	50 to 500	+ (+: Selectivity < 10)	< 50	–
CCc1cccc(C[C@H](NC(=O)C(Cn2cc(-c3ccccc3)nn2)Cn2ccsc2=O)B(O)O)c1 (stereo partly drawn) [Example 110, ((1R)-2-(3-ethylphenyl)-1-(3-(2-oxothiazol-3(2H)-yl)-2-((4-phenyl-1H-1,2,3-triazol-1-yl)methyl)propanamido)ethyl)boronic acid]	< 50	++ (++: 10 < Selectivity < 30)	–	< 50
O=C(CCn1cc(-c2ccccc2)nn1)N[C@@H](Cc1ccc(F)c(C(F)(F)F)c1)B(O)O [Example 71, (R)-(2-(4-fluoro-3-(trifluoromethyl)phenyl)-1-(3-(4-phenyl-1H-1,2,3-triazol-1-yl)propanamido)ethyl)boronic acid]	50 to 500	++ (++: 10 < Selectivity < 30)	< 50	–
COc1ccc(C[C@H](NC(=O)CCc2noc(-c3ccccc3)n2)B(O)O)cc1C(F)(F)F [Example 56, (R)-(2-(4-methoxy-3-(trifluoromethyl)phenyl)-1-(3-(5-phenyl-1,2,4-oxadiazol-3-yl)propanamido)ethyl)boronic acid]	500 to 5000	++ (++: 10 < Selectivity < 30)	50 to 500	–
CN(CC(=O)N[C@@H](Cc1coc2ccccc12)B(O)O)S(C)(=O)=O [Example 91, (R)-(2-(benzofuran-3-yl)-1-(2-(N-methylmethylsulfonamido)acetamido)ethyl)boronic acid]	50 to 500	+++ (+++: Selectivity > 30)	–	< 50
COc1ccc(C(=O)CC(Cc2ccccc2)C(=O)N[C@@H](Cc2cc(F)cc(OC)c2)B(O)O)cc1 (stereo partly drawn) [Example 49, ((1R)-1-(2-benzyl-4-(4-methoxyphenyl)-4-oxobutanamido)-2-(3-fluoro-5-methoxyphenyl)ethyl)boronic acid]	50 to 500	++ (++: 10 < Selectivity < 30)	< 50	–
CCc1cccc(C[C@H](NC(=O)CCn2nnc3ccccc32)B(O)O)c1 [Example 31, [(1R)-1-{[3-(1H-1,2,3-benzotriazol-1-yl)propanoyl]amino}-2-(3-ethylphenyl)ethyl]boronic acid]	50 to 500	++ (++: 10 < Selectivity < 30)	< 50	–

The next lines start with the values.

IC50 [1] [nM]	Selectivity LMP7 vs Beta5 [2]	IC50 [2, 3] [nM]	IC50 [2, 4] [nM]	Structure (SMILES)
50 to 500	+ (+: Selectivity < 10)	< 50	–	COc1ccc(C[C@H](NC(=O)CCn2cnc3ccccc32)B(O)O)cc1C(F)(F)F [Example 53, (R)-(1-(3-(1H-benzo[d]imidazol-1-yl)propanamido)-2-(4-methoxy-3-(trifluoromethyl)phenyl)ethyl)boronic acid]
> 5000	+++ (+++: Selectivity > 30)	50 to 500	–	COc1ccc(C(=O)CCC(=O)N[C@@H](Cc2cc(F)cc(OC)c2)B(O)O)cc1 [Example 47, (R)-(2-(3-fluoro-5-methoxyphenyl)-1-(4-(4-methoxyphenyl)-4-oxobutanamido)ethyl)boronic acid]
500 to 5000	++ (++: 10 < Selectivity < 30)	50 to 500	–	COc1ccc(C(=O)CCC(=O)N[C@@H](Cc2ccsc2)B(O)O)cc1 [Example 9, [(1R)-1-{[4-(4-methoxyphenyl)-4-oxobutanoyl]amino}-2-(3-thienyl)ethyl]boronic acid]
500 to 5000	++ (++: 10 < Selectivity < 30)	50 to 500	–	CCc1cccc(C[C@H](NC(=O)CCC(=O)c2ccc(-c3ccccc3)cc2)B(O)O)c1 [Example 17, [(1R)-1-[(4-biphenyl-4-yl-4-oxobutanoyl)amino]-2-(3-ethylphenyl)ethyl]boronic acid]
500 to 5000	++ (++: 10 < Selectivity < 30)	50 to 500	–	O=C(CCC(=O)c1cccc(-c2ccccc2)c1)N[C@@H](Cc1ccsc1)B(O)O [Example 22, [(1R)-1-[(4-biphenyl-3-yl-4-oxobutanoyl)amino]-2-(3-thienyl)ethyl]boronic acid]
50 to 500	+ (+: Selectivity < 10)	< 50	–	O=C(CCn1c(=O)sc2ccccc21)N[C@@H](Cc1ccsc1)B(O)O [Example 34, [(1R)-1-{[3-(2-oxo-1,3-benzothiazol-3(2H)-yl)propanoyl]amino}-2-(3-thienyl)ethyl]boronic acid]
500 to 5000	+++ (+++: Selectivity > 30)	50 to 500	–	O=C(CC(C(=O)N[C@@H](Cc1ccsc1)B(O)O)c1ccc(Cl)cc1)c1ccccc1 (mixture of isomers) [Example 4, [(1R)-1-{[2-(RS)-(4-chlorophenyl)-4-oxo-4-phenylbutanoyl]amino}-2-(3-thienyl)ethyl]boronic acid]
> 5000	–	500 to 5000	–	COc1ccccc1C(=O)CCC(=O)N[C@@H](Cc1ccsc1)B(O)O [Example 12, [(1R)-1-{[4-(2-methoxyphenyl)-4-oxobutanoyl]amino}-2-(3-thienyl)ethyl]boronic acid]
500 to 5000	+ (+: Selectivity < 10)	50 to 500	–	O=C(CCC(=O)c1ccc(-c2ccccc2)cc1)N[C@@H](Cc1ccsc1)B(O)O [Example 20, [(1R)-1-[(4-biphenyl-4-yl-4-oxobutanoyl)amino]-2-(3-thienyl)ethyl]boronic acid]
> 5000	–	50 to 500	–	CCc1cccc(C[C@H](NC(=O)CCC(=O)c2ccccc2OC)B(O)O)c1 [Example 8, ((1R)-2-(3-ethylphenyl)-1-{[4-(2-methoxyphenyl)-4-oxobutanoyl]amino}ethyl)boronic acid]
500 to 5000	+++ (+++: Selectivity > 30)	< 50	–	O=C(CCc1cn(-c2ccccc2)nn1)N[C@@H](Cc1ccsc1)B(O)O [Example 41, [(1R)-1-{[3-(1-phenyl-1H-1,2,3-triazol-4-yl)propanoyl]amino}-2-(3-thienyl)ethyl]boronic acid]
> 5000	++ (++: 10 < Selectivity < 30)	50 to 500	–	COc1ccc(C(=O)CCC(=O)N[C@@H](Cc2ccsc2)B(O)O)c(OC)c1 [Example 13, [(1R)-1-{[4-(2,4-dimethoxyphenyl)-4-oxobutanoyl]amino}-2-(3-thienyl)ethyl]boronic acid]
500 to 5000	+++ (+++: Selectivity > 30)	50 to 500	–	CCc1cccc(C[C@H](NC(=O)CCC(=O)c2ccc3ccccc3c2)B(O)O)c1 [Example 18, ((1R)-2-(3-ethylphenyl)-1-{[4-(2-naphthyl)-4-oxobutanoyl]amino}ethyl)boronic acid]
